Data published in the kinase profiling compilation of Christmann-Franck et al. (2016).
Several values for one entry are separate records, joined by “and”; a condition that tells them apart may be missing. Equal entries are not always repeated.

Legend:
Assay in all cases: radiometric filter-binding kinase assay, Kinase HotSpot
MINK1 (human) = MINK1 (human) (UniProt Q8N4C8); conditions: compound 0.5 µM; ATP 10 µM
IKBKE (human) = IKBKE (human) (UniProt Q14164); conditions: compound 0.5 µM; ATP 10 µM
PRKCB1 (human) = PRKCB1 (human) (UniProt P05771); conditions: compound 0.5 µM; ATP 10 µM
AURKA (human) = AURKA (human) (UniProt O14965); conditions: compound 0.5 µM; ATP 10 µM
EPHB2 (human) = EPHB2 (human) (UniProt P29323); conditions: compound 0.5 µM; ATP 10 µM
MLTK (human) = MLTK (human) (UniProt Q9NYL2); conditions: compound 0.5 µM; ATP 10 µM
NEK3 (human) = NEK3 (human) (UniProt P51956); conditions: compound 0.5 µM; ATP 10 µM
STK4 (human) = STK4 (human) (UniProt Q13043); conditions: compound 0.5 µM; ATP 10 µM
MAP3K8 (human) = MAP3K8 (human) (UniProt P41279); conditions: compound 0.5 µM; ATP 10 µM
FYN (human) = FYN (human) (UniProt P06241); conditions: compound 0.5 µM; ATP 10 µM
IRAK4 (human) = IRAK4 (human) (UniProt Q9NWZ3); conditions: compound 0.5 µM; ATP 10 µM
JAK3 JH1 JH2 (human) = JAK3 JH1 JH2 (human) (UniProt P52333); conditions: compound 0.5 µM; ATP 10 µM
CSNK2A1 (human) = CSNK2A1 (human) (UniProt P68400); conditions: compound 0.5 µM; ATP 10 µM
EGFR (human) = EGFR (human) (UniProt P00533); conditions: compound 0.5 µM; ATP 10 µM
MST1R (human) = MST1R (human) (UniProt Q04912); conditions: compound 0.5 µM; ATP 10 µM
CAMKK2 (human) = CAMKK2 (human) (UniProt Q96RR4); conditions: compound 0.5 µM; ATP 10 µM
DSTYK (human) = DSTYK (human) (UniProt Q6XUX3); conditions: compound 0.5 µM; ATP 10 µM
BRAF (human) = BRAF (human) (UniProt P15056); conditions: compound 0.5 µM; ATP 10 µM
CAMK1G (human) = CAMK1G (human) (UniProt Q96NX5); conditions: compound 0.5 µM; ATP 10 µM
PAK6 (human) = PAK6 (human) (UniProt Q9NQU5); conditions: compound 0.5 µM; ATP 10 µM
PRKCA (human) = PRKCA (human) (UniProt P17252); conditions: compound 0.5 µM; ATP 10 µM
CDK4 CCND1 (human) = CDK4 CCND1 (human) (UniProt P24385+P11802); conditions: compound 0.5 µM
MAP4K5 (human) = MAP4K5 (human) (UniProt Q9Y4K4); conditions: compound 0.5 µM; ATP 10 µM
STK11 (human) = STK11 (human) (UniProt Q15831); conditions: compound 0.5 µM; ATP 10 µM
MARK1 (human) = MARK1 (human) (UniProt Q9P0L2); conditions: compound 0.5 µM; ATP 10 µM
EPHB3 (human) = EPHB3 (human) (UniProt P54753); conditions: compound 0.5 µM; ATP 10 µM
CSNK1E (human) = CSNK1E (human) (UniProt P49674); conditions: compound 0.5 µM; ATP 10 µM
LCK (human) = LCK (human) (UniProt P06239); conditions: compound 0.5 µM; ATP 10 µM
CDK2 CCNA2 (human) = CDK2 CCNA2 (human) (UniProt P24941+P20248); conditions: compound 0.5 µM
AURKC (human) = AURKC (human) (UniProt Q9UQB9); conditions: compound 0.5 µM; ATP 10 µM
PHKG2 (human) = PHKG2 (human) (UniProt P15735); conditions: compound 0.5 µM; ATP 10 µM
MAP2K1 (human) = MAP2K1 (human) (UniProt Q02750); conditions: compound 0.5 µM; ATP 10 µM
LYN (human) = LYN (human) (UniProt P07948); conditions: compound 0.5 µM; ATP 10 µM
CDK4 CCND3 (human) = CDK4 CCND3 (human) (UniProt P30281+P11802); conditions: compound 0.5 µM
HCK (human) = HCK (human) (UniProt P08631); conditions: compound 0.5 µM; ATP 10 µM
MAP4K4 (human) = MAP4K4 (human) (UniProt O95819); conditions: compound 0.5 µM; ATP 10 µM

Sequence of CSNK1E (human) (P49674 whole entry, looked up): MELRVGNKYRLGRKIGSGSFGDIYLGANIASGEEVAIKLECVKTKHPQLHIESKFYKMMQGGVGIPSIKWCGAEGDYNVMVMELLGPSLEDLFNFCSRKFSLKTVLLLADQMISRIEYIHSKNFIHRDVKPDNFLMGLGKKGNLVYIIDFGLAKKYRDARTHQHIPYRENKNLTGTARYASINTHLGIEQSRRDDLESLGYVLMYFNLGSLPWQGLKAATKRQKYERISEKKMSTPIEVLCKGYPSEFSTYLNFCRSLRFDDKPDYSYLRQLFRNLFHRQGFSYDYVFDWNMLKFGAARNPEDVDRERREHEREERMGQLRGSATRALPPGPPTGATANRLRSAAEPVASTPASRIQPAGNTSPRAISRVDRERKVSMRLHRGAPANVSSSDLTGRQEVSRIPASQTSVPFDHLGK
Sequence of CDK4 CCND3 (human) (P11802 whole entry, looked up): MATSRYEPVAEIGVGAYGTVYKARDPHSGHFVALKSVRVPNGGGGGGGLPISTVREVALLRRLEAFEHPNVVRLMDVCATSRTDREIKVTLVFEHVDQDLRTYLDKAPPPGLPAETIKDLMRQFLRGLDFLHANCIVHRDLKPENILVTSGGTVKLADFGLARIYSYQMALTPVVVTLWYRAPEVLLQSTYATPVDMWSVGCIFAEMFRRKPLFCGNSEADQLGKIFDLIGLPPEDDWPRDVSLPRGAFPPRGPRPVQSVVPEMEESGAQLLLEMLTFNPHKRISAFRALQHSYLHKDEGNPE
Sequence of CDK4 CCND3 (human) (P30281 whole entry, looked up): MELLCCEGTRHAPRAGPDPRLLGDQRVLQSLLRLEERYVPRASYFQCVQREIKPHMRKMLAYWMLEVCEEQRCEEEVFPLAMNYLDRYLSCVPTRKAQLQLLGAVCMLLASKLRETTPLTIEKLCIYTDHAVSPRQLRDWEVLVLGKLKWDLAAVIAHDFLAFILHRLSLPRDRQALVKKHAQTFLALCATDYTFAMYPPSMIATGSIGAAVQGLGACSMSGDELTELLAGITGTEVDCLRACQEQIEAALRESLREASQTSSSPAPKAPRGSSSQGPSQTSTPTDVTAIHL
Sequence of CDK4 CCND1 (human) (P11802 whole entry, looked up): as the sequence (P11802 whole entry, looked up) above
Sequence of CDK4 CCND1 (human) (P24385 whole entry, looked up): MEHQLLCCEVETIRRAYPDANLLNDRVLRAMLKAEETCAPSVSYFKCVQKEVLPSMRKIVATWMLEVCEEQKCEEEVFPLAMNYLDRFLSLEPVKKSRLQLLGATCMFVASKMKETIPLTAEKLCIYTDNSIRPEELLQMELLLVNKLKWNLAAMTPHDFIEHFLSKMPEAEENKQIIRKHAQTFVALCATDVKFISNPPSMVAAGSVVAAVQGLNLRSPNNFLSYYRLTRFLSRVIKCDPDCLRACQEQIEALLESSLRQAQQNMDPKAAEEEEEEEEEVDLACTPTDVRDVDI
Sequence of MARK1 (human) (Q9P0L2 whole entry, looked up): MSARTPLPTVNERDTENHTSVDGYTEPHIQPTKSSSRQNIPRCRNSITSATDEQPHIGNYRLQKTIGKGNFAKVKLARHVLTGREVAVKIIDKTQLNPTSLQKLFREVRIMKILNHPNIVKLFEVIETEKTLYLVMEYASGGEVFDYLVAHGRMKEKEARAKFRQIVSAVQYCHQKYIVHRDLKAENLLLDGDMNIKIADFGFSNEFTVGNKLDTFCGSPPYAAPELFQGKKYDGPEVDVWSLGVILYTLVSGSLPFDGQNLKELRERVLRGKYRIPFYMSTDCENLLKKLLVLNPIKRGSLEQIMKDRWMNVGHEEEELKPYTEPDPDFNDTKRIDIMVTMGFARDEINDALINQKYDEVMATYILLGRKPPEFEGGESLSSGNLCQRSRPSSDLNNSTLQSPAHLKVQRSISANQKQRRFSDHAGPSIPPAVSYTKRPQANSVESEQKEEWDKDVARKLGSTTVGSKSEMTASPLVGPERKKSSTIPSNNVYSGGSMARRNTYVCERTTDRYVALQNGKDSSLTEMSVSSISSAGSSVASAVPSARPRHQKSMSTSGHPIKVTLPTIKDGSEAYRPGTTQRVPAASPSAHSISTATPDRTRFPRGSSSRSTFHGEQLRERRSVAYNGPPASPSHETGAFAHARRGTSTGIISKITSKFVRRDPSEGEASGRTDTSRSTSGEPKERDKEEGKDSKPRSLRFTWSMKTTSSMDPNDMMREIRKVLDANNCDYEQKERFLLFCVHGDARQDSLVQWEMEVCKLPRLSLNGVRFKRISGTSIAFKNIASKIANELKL
Sequence of CSNK2A1 (human) (P68400 whole entry, looked up): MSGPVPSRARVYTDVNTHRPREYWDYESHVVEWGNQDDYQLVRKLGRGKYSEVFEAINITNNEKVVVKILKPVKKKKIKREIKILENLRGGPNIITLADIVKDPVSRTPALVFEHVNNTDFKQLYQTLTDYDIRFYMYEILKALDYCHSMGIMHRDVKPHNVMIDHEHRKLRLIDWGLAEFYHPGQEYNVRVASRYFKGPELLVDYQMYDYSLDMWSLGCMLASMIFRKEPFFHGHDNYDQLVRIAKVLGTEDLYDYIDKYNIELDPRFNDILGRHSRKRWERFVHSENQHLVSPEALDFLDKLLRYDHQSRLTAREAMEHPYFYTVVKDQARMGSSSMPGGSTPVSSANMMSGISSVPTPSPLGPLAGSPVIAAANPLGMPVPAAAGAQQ
Sequence of AURKC (human) (Q9UQB9 whole entry, looked up): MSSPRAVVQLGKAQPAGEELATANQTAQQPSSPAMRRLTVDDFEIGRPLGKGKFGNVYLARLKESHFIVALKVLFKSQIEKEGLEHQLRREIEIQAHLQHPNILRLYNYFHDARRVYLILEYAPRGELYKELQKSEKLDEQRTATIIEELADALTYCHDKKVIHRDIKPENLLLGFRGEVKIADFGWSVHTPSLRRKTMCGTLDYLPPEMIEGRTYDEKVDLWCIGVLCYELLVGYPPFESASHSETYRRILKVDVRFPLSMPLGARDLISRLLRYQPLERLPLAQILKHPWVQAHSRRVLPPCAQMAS
Sequence of HCK (human) (P08631 whole entry, looked up): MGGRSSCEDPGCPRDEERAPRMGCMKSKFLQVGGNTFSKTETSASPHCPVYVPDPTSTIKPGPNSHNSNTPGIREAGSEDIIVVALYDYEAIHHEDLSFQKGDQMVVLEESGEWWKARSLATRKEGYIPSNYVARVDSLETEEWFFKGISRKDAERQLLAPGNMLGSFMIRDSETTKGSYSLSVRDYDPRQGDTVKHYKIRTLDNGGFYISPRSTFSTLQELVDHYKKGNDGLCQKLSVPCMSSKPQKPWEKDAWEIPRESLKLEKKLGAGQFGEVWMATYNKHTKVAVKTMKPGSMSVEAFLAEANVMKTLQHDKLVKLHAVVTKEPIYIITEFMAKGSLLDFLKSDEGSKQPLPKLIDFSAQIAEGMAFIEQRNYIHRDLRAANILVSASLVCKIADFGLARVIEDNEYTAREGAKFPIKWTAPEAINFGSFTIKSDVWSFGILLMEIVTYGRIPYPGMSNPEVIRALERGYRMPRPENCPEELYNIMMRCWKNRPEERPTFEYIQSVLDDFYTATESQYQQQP
Sequence of DSTYK (human) (Q6XUX3 whole entry, looked up): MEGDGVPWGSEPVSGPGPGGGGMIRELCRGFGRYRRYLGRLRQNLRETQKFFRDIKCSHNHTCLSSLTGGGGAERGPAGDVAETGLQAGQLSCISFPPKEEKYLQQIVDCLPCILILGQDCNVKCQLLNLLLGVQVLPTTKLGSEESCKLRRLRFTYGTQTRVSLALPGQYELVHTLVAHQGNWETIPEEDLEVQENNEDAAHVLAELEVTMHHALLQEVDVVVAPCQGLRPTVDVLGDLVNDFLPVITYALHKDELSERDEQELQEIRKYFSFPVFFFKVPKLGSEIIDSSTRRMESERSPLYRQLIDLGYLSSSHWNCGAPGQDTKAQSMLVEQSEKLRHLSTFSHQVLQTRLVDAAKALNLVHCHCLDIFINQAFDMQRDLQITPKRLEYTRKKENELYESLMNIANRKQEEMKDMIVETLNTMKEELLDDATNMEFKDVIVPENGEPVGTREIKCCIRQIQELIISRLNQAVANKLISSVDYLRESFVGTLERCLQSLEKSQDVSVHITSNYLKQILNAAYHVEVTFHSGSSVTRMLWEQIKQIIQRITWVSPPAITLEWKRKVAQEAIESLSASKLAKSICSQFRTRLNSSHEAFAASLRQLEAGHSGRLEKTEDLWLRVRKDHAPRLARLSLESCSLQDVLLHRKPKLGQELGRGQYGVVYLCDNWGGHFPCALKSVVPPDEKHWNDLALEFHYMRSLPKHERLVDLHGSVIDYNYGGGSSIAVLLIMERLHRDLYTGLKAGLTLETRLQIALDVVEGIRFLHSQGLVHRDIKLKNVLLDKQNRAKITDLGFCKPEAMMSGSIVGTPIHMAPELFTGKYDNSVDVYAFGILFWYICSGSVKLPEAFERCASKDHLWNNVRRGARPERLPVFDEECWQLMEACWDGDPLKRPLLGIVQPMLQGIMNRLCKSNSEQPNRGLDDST

| SMILES | residual activity (MINK1 (human)) [%] | residual activity (IKBKE (human)) [%] | residual activity (PRKCB1 (human)) [%] | residual activity (AURKA (human)) [%] | residual activity (EPHB2 (human)) [%] | residual activity (MLTK (human)) [%] | residual activity (NEK3 (human)) [%] | residual activity (STK4 (human)) [%] | residual activity (MAP3K8 (human)) [%] | residual activity (FYN (human)) [%] | residual activity (IRAK4 (human)) [%] | residual activity (JAK3 JH1 JH2 (human)) [%] | residual activity (CSNK2A1 (human)) [%] | residual activity (EGFR (human)) [%] | residual activity (MST1R (human)) [%] | residual activity (CAMKK2 (human)) [%] | residual activity (DSTYK (human)) [%] | residual activity (CAMK1G (human)) [%] | residual activity (PAK6 (human)) [%] | residual activity (PRKCA (human)) [%] | further results |
| --- | --- | --- | --- | --- | --- | --- | --- | --- | --- | --- | --- | --- | --- | --- | --- | --- | --- | --- | --- | --- | --- |
| O=c1[nH]c2ccccc2n1C1CCN(Cc2ccc(-c3nc4cc5[nH]cnc5cc4nc3-c3ccccc3)cc2)CC1 | 103 | 91.9 | 108 | 99 | 108 | 106 | 97.2 | 95.2 | 95.2 | 101 | 201 | 100 | 94.3 | 99.8 | 111 | 112 | 104 | 101 | 109 | 84.3 | residual activity (BRAF (human)): 101%; residual activity (CDK4 CCND1 (human)): 108%; residual activity (MAP4K5 (human)): 91.9%; residual activity (STK11 (human)): 95.6%; residual activity (MARK1 (human)): 104%; residual activity (EPHB3 (human)): 104%; residual activity (CSNK1E (human)): 107%; residual activity (LCK (human)): 98.2%; residual activity (CDK2 CCNA2 (human)): 98%; residual activity (AURKC (human)): 96%; residual activity (PHKG2 (human)): 104%; residual activity (MAP2K1 (human)): 96.8%; residual activity (LYN (human)): 102% and 116%; residual activity (CDK4 CCND3 (human)): 99.7%; residual activity (HCK (human)): 99.6%; residual activity (MAP4K4 (human)): 99.5% |
| Cc1cc(Nc2nc(-c3ccccc3)nc3ccccc23)n[nH]1 | 35.6 | 67.1 | 99.9 | 19.8 | 76.7 | 87.1 | 101 | 58 | 105 | 40 | 93.2 | 96.7 | 27 | 97.4 | 96.6 | 88.6 | 86 | 101 | 78.9 | 92.2 | residual activity (BRAF (human)): 99.5%; residual activity (CDK4 CCND1 (human); ATP 10 µM): 100%; residual activity (MAP4K5 (human)): 20.2%; residual activity (STK11 (human)): 69%; residual activity (MARK1 (human)): 93.7%; residual activity (EPHB3 (human)): 86.5%; residual activity (CSNK1E (human)): 97.4%; residual activity (LCK (human)): 75.6%; residual activity (CDK2 CCNA2 (human); ATP 10 µM): 96.9%; residual activity (AURKC (human)): 51.8%; residual activity (PHKG2 (human)): 86.3%; residual activity (MAP2K1 (human)): 91.6%; residual activity (LYN (human)): 79.9% and 88.7%; residual activity (CDK4 CCND3 (human); ATP 10 µM): 94.4%; residual activity (HCK (human)): 77.3%; residual activity (MAP4K4 (human)): 25.7% |
| c1ccc(-c2cnc(Nc3ccc(OCCN4CCCC4)cc3)s2)cc1 | 38.7 | 81.6 | 108 | 95.3 | 75.6 | 25.9 | 92.9 | 102 | 97.2 | 81.1 | 86.1 | 108 | 90.7 | 98.3 | 107 | 89.4 | 90.8 | 101 | 101 | 106 | residual activity (CDK4 CCND1 (human); ATP 10 µM): 61.2%; residual activity (MAP4K5 (human)): 72.5%; residual activity (STK11 (human)): 103%; residual activity (MARK1 (human)): 90.1%; residual activity (EPHB3 (human)): 93.3%; residual activity (CSNK1E (human)): 81.2%; residual activity (LCK (human)): 48.6%; residual activity (CDK2 CCNA2 (human); ATP 10 µM): 85.2%; residual activity (AURKC (human)): 94.9%; residual activity (PHKG2 (human)): 97%; residual activity (MAP2K1 (human)): 96.9%; residual activity (LYN (human)): 65.1% and 87.5%; residual activity (CDK4 CCND3 (human); ATP 10 µM): 84.9%; residual activity (HCK (human)): 98.6%; residual activity (MAP4K4 (human)): 35.5% |
| N#CCCc1ccc2c(c1)-c1[nH]c3ccc([N+](=O)[O-])cc3c1CC(=O)N2 | 29.9 | 89.2 | 97.4 | 78.7 | 98.5 | 88.6 | 104 | 30.9 | 87.5 | 52.2 | 155 | 101 | 91.2 | 94.4 | 107 | 86.8 | 67.1 | 103 | 104 | 80.9 | residual activity (BRAF (human)): 99.3%; residual activity (CDK4 CCND1 (human); ATP 10 µM): 11.8%; residual activity (MAP4K5 (human)): 7.61%; residual activity (MARK1 (human)): 67.4%; residual activity (EPHB3 (human)): 102%; residual activity (CSNK1E (human)): 91.4%; residual activity (LCK (human)): 78.2%; residual activity (CDK2 CCNA2 (human); ATP 10 µM): 2.93%; residual activity (AURKC (human)): 83.6%; residual activity (PHKG2 (human)): 99.1%; residual activity (MAP2K1 (human)): 97.1%; residual activity (CDK4 CCND3 (human); ATP 10 µM): 25.9%; residual activity (HCK (human)): 63.8%; residual activity (MAP4K4 (human)): 6.82% |
| CCOc1cc2ncnc(Nc3cccc(Br)c3)c2cc1OCC | 77.8 | 98.7 | 100 | 110 | 77 | 89.8 | 100 | 98.5 | 106 | 78.9 | 102 | 102 | 95.9 | 2.02 | 102 | 101 | 101 | 97.2 | 119 | 85.3 | residual activity (BRAF (human)): 97.1%; residual activity (CDK4 CCND1 (human); ATP 10 µM): 94.2%; residual activity (MAP4K5 (human)): 47.7%; residual activity (STK11 (human)): 88%; residual activity (MARK1 (human)): 90.3%; residual activity (EPHB3 (human)): 99.7%; residual activity (CSNK1E (human)): 93.8%; residual activity (LCK (human)): 52.9%; residual activity (CDK2 CCNA2 (human); ATP 10 µM): 91.9%; residual activity (AURKC (human)): 83.7%; residual activity (PHKG2 (human)): 101%; residual activity (MAP2K1 (human)): 96.1%; residual activity (LYN (human)): 32.1% and 49.5%; residual activity (CDK4 CCND3 (human); ATP 10 µM): 97.8%; residual activity (HCK (human)): 59.4%; residual activity (MAP4K4 (human)): 67% |
| O=C(c1ccccc1)c1ccc(N2CCOCC2)cc1O | 91.1 | 101 | 90.1 | 108 | 94.9 | 95 | 95.6 | 103 | 99.6 | 106 | 108 | 103 | 91.1 | 94.9 | 106 | 111 | 86.2 | 96.1 | 93.6 | 84.2 | residual activity (CDK4 CCND1 (human); ATP 10 µM): 96.1%; residual activity (MAP4K5 (human)): 100%; residual activity (STK11 (human)): 104%; residual activity (MARK1 (human)): 97.6%; residual activity (EPHB3 (human)): 92.2%; residual activity (CSNK1E (human)): 97.7%; residual activity (LCK (human)): 101%; residual activity (CDK2 CCNA2 (human); ATP 10 µM): 99.3%; residual activity (AURKC (human)): 102%; residual activity (PHKG2 (human)): 101%; residual activity (MAP2K1 (human)): 98.1%; residual activity (LYN (human)): 100% and 105%; residual activity (CDK4 CCND3 (human); ATP 10 µM): 96.2%; residual activity (HCK (human)): 114%; residual activity (MAP4K4 (human)): 86.4% |
